Test results as given in US8536142B2, “Spinosyns for wound healing” (Eli Lilly and Company, priority 2004, dated 2013).
Where no end group is shown, it is not given here.

Test system: vascular response of rat footpad blisters (CGRP, substance P, eNOS effectors)
Assay: Blister model: effect of sensory nerve peptide antagonists and eNOS inhibitor on the vascular response to 0.5% spinosad
Format: in vivo
Protocol: Neurogenic inflammatory responses are assessed using a well-established method (Khalil & Helme, Brain Res. 527: 292-298 (1990)). Anaesthesia is induced in outbred male Sprague-Dawley rats with pentobarbitone sodium (60 mg/kg i.p). General anaesthesia is maintained by supplementary injections of 15 mg/kg. This method of anaesthesia has been shown not to alter the basal vasodilator responses in peripheral microvasculature (Khalil & Helm; Brain Res. 500: 256-262 (1989)). The left jugular vein is cannulated with polyethylene tubing for the intravenous administration of heparin/saline solution or drugs. Body temperature is maintained at 37° C. At the completion of the experiment, the animals are sacrificed by barbiturate overdose.
Blisters are induced in the middle region of the hindpaw in anaesthetised rats using vacuum pressure of −40 kPa applied for 30 minutes via a metal suction cap heated to 40° C. Once a blister is established, the epidermis (surface epithelium) is removed and a perspex chamber with inlet and outlet ports secured over the blister base. Ringer's solution is perfused over the blister surface and maintained by a peristaltic pump at 4 ml/hr to establish baseline measurements. Relative blood flow is monitored over time by a laser Doppler flowmeter via a probe placed immediately above the blister base and relative blood flux (volts) monitored continuously on a chart recorder. […]

CGRP8-37: CGRP antagonist; Auspep (VTHRLAGLLSRSGGVVKNNFVPTNVGSKAF; ends and bridges not checked; UniProt P06881 90-119, looked up, fragment)
% contribution of effector to the vascular response of spinosad (effector blocked by the perfused substance (eNOS, CGRP, Substance P), 0.5% spinosad): 27%
Blood flow as area under the curve (substance perfused 10 minutes, then co-perfused with 0.5% spinosad 30 minutes (Control = 0.5% spinosad alone), L-NAME 100 μM, CGRP8-37 1 μM, spantide II 10 μM, mean ± SEM, n = 6): 83.2 (±6.5) cm^2
